Assay results as given in US12648946B2, “Combination of antibody-pyrrolobenzodiazepine derivative conjugate and PARP inhibitor” (DAIICHI SANKYO COMPANY, LIMITED, priority 2019, dated 2026).
Read-outs that look alike come from different tables or passages of the source.

T1: human claudin-6 (Homo sapiens, UniProt P56747)
T1 construct: expressed in transfected cells; host or cells: CHO-K1 cells
T1 sequence (P56747 1-220): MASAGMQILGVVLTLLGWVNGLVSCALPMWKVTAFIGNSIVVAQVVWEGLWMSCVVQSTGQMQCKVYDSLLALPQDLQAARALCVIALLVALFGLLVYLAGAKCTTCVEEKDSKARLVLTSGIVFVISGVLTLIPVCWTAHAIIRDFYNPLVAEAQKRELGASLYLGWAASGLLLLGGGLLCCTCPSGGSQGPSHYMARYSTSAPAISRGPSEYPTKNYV


What was measured:
[1] = tested on: human pharyngeal cancer cell line FaDu; experiment: Cell growth inhibition test (3); assay type: cell-based; conditions: 144 h
Description: (§1) The human pharyngeal cancer cell line FaDu obtained from ATCC (American Type Culture Collection) was used for evaluation. Cells were prepared with MEM containing 10% fetal bovine serum (GE Healthcare), MEM Non-Essential Amino Acids Solution (Thermo Fisher Scientific), and Sodium Pyruvate (Thermo Fisher Scientific) (Thermo Fisher Scientific; hereinafter, referred to as EMEM medium) to reach 6.25×10^3 cells/mL, and 80 μL portions of them were added into a 96-well cell culture microplate. After addition of the cells, the cells were cultured at 37° C. and 5% CO2 overnight.
(§2) On the next day, 10 μL portions of pyrrolobenzodiazepine derivative A, B, or C diluted with EMEM medium to 100 pM, 50 pM, 25 pM, 12.5 pM, 6.25 pM, 3.13 pM, 1.56 pM, or 0.78 pM were added to the microplate. To each well without any pyrrolobenzodiazepine derivative, 10 μL of EMEM medium was added. Further, 10 μL portions of talazoparib prepared with EMEM medium to reach 2 nM were added to the microplate. To each well without talazoparib, 10 μL of EMEM medium was added. Thereafter, the microplate was cultured at 37° C. and 5% CO2 for 6 days. After culturing, the microplate was taken out of the incubator, and left to stand at room temperature for 30 minutes. CellTiter-Glo Luminescent Cell Viability Assay (Promega Corporation) in an amount equivalent to that of the culture solution was added, and stirred using a plate mixer. The microplate was left to stand at room temperature for 10 minutes, and thereafter the amount of emission was measured by using a plate reader (PerkinElmer).
(§3) Cell survival rates in wells with derivative A, B, or C were calculated by using the following formula.
(§4) [formula] • a: Mean value of amounts of emission from wells with derivative A, B, or C • b: Mean value of amounts of emission from wells with medium • IC50 values were calculated by using the following formula.
(§5) [formula] • a: Concentration of derivative A, B, or C, a • b: Concentration of derivative A, B, or C, b • c: Cell survival rate when derivative A, B, or C of concentration a was added • d: Cell survival rate when derivative A, B, or C of concentration b was added • a and b satisfy a>b at points sandwiching a cell survival rate of 50%.
Cell survival rates in wells with derivative A, B, or C added together with 2 nM talazoparib were calculated by using the following formula.
[formula] • a: Mean value of amounts of emission from wells with derivative A, B, or C added together with 2 nM talazoparib • b: Mean value of amounts of emission from wells with 2 nM talazoparib • IC50 values were calculated by using the following formula.
as §5, with “and 2 nM talazoparib were” for “was”

[2] = tested on: human lung cancer cell line Calu-6; experiment: Cell growth inhibition test (1); assay type: cell-based; conditions: Calu-6, 144 h
Description: as §1, with “lung” for “pharyngeal”, “Calu-6” for “FaDu”, “1.25×10^4” for “6.25×10^3”
as §2, with “olaparib” for “talazoparib”, “μM” for “nM”, “olaparib,” for “talazoparib,”
as §3, §4, §5
Cell survival rates in wells with derivative A, B, or C added together with 2 μM olaparib were calculated by using the following formula.
[formula] a: Mean value of amounts of emission from wells with derivative A, B, or C added together with 2 μM olaparib • b: Mean value of amounts of emission from wells with 2 μM olaparib • IC50 values were calculated by using the following formula.
as §5, with “and 2 μM olaparib were” for “was”

[3] = tested on: human pharyngeal cancer cell line FaDu; experiment: Cell growth inhibition test (2); assay type: cell-based; conditions: 144 h
Description: as §1
as §2, with “olaparib” for “talazoparib”, “1 μM” for “2 nM”, “olaparib,” for “talazoparib,”
Cell survival rates in wells with derivative A, B, or […] were calculated by using the following formula.
as §4, §5
Cell survival rates in wells with derivative A, B, or C added together with 1 μM olaparib were calculated by using the following formula.
[formula] • a: Mean value of amounts of emission from wells with derivative A, B, or C added together with 1 μM olaparib • b: Mean value of amounts of emission from wells with 1 μM olaparib • IC50 values were calculated by using the following formula.
as §5, with “and 1 μM olaparib were” for “was”

[4] = tested on: human ovarian cancer cell line OV-90; experiment: Antitumor test (4), subcutaneous xenograft; assay type: in vivo, mouse; conditions: single administration
Description: Mouse: Five- to six-week-old female BALB/c nude mice (Charles River Laboratories Japan, Inc.) were subjected to experiment.
Assay and calculation formula: In all of the studies, the major axis and minor axis of a tumor were measured twice a week by using an electronic digital caliper (CD-15CX, Mitutoyo Corp.), and the tumor volume (mm^3) was calculated. The calculation formula is as shown below.
Each of the anti-CLDN6 antibody-drug conjugate ADC1, the anti-HER2 antibody-drug conjugate ADC2, and the anti-TROP2 antibody-drug conjugate ADC3 was diluted with ABS buffer (10 mM acetate buffer (pH 5.5), 5% sorbitol), and a liquid volume of 10 mL/kg was intravenously administered into the tail vein. Olaparib was dissolved in Dimethyl sulfoxide (DMSO), diluted with 10% 2-hydroxy-propyl-β-cyclodextrin (Sigma-Aldrich Co. LLC)/Dulbecco's Phosphate-Buffered Saline, and then a liquid volume of 10 mL/kg was intraperitoneally administered. Talazoparib was dissolved in DMSO, diluted with 10% N,N-dimethylacetamide/5% Kolliphor HS15 (Sigma-Aldrich Co. LLC)/Dulbecco's Phosphate-Buffered Saline, and then a liquid volume of 10 mL/kg was orally administered. […]

human claudin-6 = molecular target: T1, human claudin-6; experiment: FACS analysis of hybridoma antibodies on claudin-6 forced-expression cells; assay type: binding; conditions: human claudin-6-expressing CHO-K1 cells, cDNA transfection
Description: Since the antigen for the 218B1 antibody and 218C7 antibody was estimated to be claudin-6 from the mass spectrometry, forced expression analysis by cDNA transfection was carried out.

[5] = tested on: BxPC-3, human pancreatic cancer cell line of human CLDN6-negative cells; experiment: Internalization activity of antibodies (Mab-ZAP, CellTiter-Glo); assay type: cell-based; conditions: antibody 1 nM with Mab-ZAP 0.5 nM, 5 days
Description: (§6) Internalization activity of the mouse anti-CLDN6 antibodies B1 and C7 was evaluated by using the anti-mouse IgG reagent, to which a toxin that inhibits protein synthesis (saporin) had been conjugated, Mab-ZAP (Advanced Targeting Systems). In this evaluation, Mab-ZAP is incorporated into cells in a manner depending on the internalization activity of a mouse anti-CLDN6 antibody, and saporin, which inhibits protein synthesis, is released in the cells to suppress cell growth.
(§7) JEG-3 (ATCC HTB-36), a human choriocarcinoma cell line of human CLDN6-positive cells, NIH: OVCAR-3 (ATCC HTB-161), a human ovarian cancer cell line of human CLDN6-positive cells, or BxPC-3 (ATCC CRL-1687), a human pancreatic cancer cell line of human CLDN6-negative cells, was seeded in a 96-well cell culture microplate at 2×10^3 cells/well, and cultured under conditions of 37° C. and 5% CO2 overnight. On the next day, a mixed solution obtained by mixing each mouse anti-CLDN6 antibody or mouse IgG1 antibody (R&D Systems, Inc.) to a final concentration of 1 nM, with Mab-ZAP (final concentration: 0.5 nM) or AffiniPure Goat Anti-Mouse IgG, Fcγ Fragment Specific (Jackson ImmunoResearch Laboratories Inc.) (final concentration: 0.5 nM), without conjugated toxin, was added, and the cells were cultured under conditions of 37° C. and 5% CO2 for 5 days. The number of surviving cells was determined through quantification of ATP activity by using CellTiter-Glo Luminescent Cell Viability Assay (Promega Corporation).

[6] = tested on: JEG-3, human choriocarcinoma cell line of human CLDN6-positive cells; experiment: as above; assay type: cell-based; conditions: antibody 1 nM with Mab-ZAP 0.5 nM, 5 days
Description: as §6, §7

[7] = tested on: NIH: OVCAR-3, human ovarian cancer cell line of human CLDN6-positive cells; experiment: as above; assay type: cell-based; conditions: antibody 1 nM with Mab-ZAP 0.5 nM, 5 days
Description: as §6, §7

[8] = read-out: IC50, growth-suppressing effect, added singly, FaDu, 6 days (test 3)
[9] = read-out: IC50, growth-suppressing effect, added together with 2 nM talazoparib, FaDu, 6 days
[10] = read-out: IC50, growth-suppressing effect, added singly, Calu-6, 6 days
[11] = read-out: IC50, growth-suppressing effect, added together with 2 μM olaparib, Calu-6, 6 days
[12] = read-out: IC50, growth-suppressing effect, added singly, FaDu, 6 days (test 2)
[13] = read-out: IC50, growth-suppressing effect, added together with 1 μM olaparib, FaDu, 6 days

Molecule | IC50 [1, 8] | IC50 [1, 9] | IC50 [2, 10] | IC50 [2, 11] | IC50 [3, 12] | IC50 [3, 13] | findings such as weight loss ([4]; Day 21, OV-90 model) | tumor growth inhibition (TGI) ([4]; niraparib 75 mg/kg oral for 5 days from Day 0, Day 21, OV-90) | FACS reaction (human claudin-6) | Cell growth-suppressing effect (internalization activity) [5] | Cell growth-suppressing effect (internalization activity) [6] | Cell growth-suppressing effect (internalization activity) [7]
COc1cc2c(cc1OCCCCCOc1cc3c(cc1OC)C(=O)N1CC4(CC4)C[C@H]1CN3)N=C[C@@H]1CC3(CC3)CN1C2=O [derivative B, (11a′S)-7′-Methoxy-8′-[(5-{[(11a′S)-7′-methoxy-5′-oxo-5′,11a′-dihydro-1′H-spiro[cyclopropane-1,2′-pyrrolo[2,1-c][1,4]benzodiazepine]-8′-yl]oxy}pentyl)oxy]-1′,10′,11′,11a′-tetrahydro-5′H-spiro[cyclopropane-1,2′-pyrrolo[2,1-c][1,4]benzodiazepine]-5′-one] | 0.121 nM | 0.0821 nM | 0.12 nM | 0.0794 nM | 0.123 nM | 0.0719 nM | – | – | – | – | – | –
COc1ccc(C2=CN3C(=O)c4cc(OC)c(OCCCOc5cc6c(cc5OC)C(=O)N5CC7(CC7)C[C@H]5C=N6)cc4NC[C@@H]3C2)cc1 [derivative C, (11a′S)-7′-Methoxy-8′-(3-{[(11aS)-7-methoxy-2-(4-methoxyphenyl)-5-oxo-5,10,11,11a-tetrahydro-1H-pyrrolo[2,1-c][1,4]benzodiazepin-8-yl]oxy}propoxy)-1′,11a′-dihydro-5′H-spiro[cyclopropane-1,2′-pyrrolo[2,1-c][1,4]benzodiazepine]-5′-one] | 0.0831 nM | 0.0512 nM | 0.113 nM | 0.0894 nM | 0.0732 nM | 0.0445 nM | – | – | – | – | – | –
NC(=O)c1cccc2cn(-c3ccc([C@@H]4CCCNC4)cc3)nc12 [niraparib] | – | – | – | – | – | – | no particularly significant finding such as weight loss | 1% | – | – | – | –
B1: mouse anti-CLDN6 antibody from hybridoma 218B1; heavy chain variable region SEQ ID NO: 21, light chain SEQ ID NO: 19 (antibody, listed as Mus musculus, V domains shown, amino acid sequence of variable region of B1 antibody heavy chain; amino acid sequence of variable region of B1 antibody light chain) VH: EVQLQQSGPELVKPGASVKISCKTSGYTFTEYTMHWVQQSHGKSLEWIGGVNPNSGDTSYNQKFKGKATLTVDKSSSTAYMELRSLTSEDSAVYYCARPGGYDVGYYAMDYWGQGTSVTVSS VL: DIQMTQTASSLSASLGDRVTISCRASQDINNYLNWYQQKPDGTVKLLIYFTSRLHSGVPSRFSGSGSGTHYSLTITNLEQEDIATYFCQQGYPLPWTFGGGTKLEIK | – | – | – | – | – | – | – | – | strong positive reaction | no cell growth-suppressing effect | cell growth-suppressing effect | cell growth-suppressing effect
